Test results as given in patent US20060189602A1, “Pyridazinone compounds” (Anadys Pharmaceuticals, Inc., priority 2004, published 2006).

These compounds were tested against HCV NS5B polymerase (Hepatitis C virus genotype 1b, UniProt P26663) (assay: NS5B Polymerase Inhibition Assay). Conditions: 50 nM enzyme, [α-33P]GTP, oligo (rG13)/poly rC, 75 min at 28° C.
Assay type: biochemical
Method: NS5B Polymerase Inhibition Assay
Compounds were tested for HCV polymerase inhibition. Assays were performed in a 96-well streptavidin-coated FlashPlate using 50 nM enzyme, 0.5 μCi of [α-^33P]GTP, 0.63 μM GTP, and 250 nM 5′biotinylated oligo (rG13)/poly rC in 20 mM Tris-HCl, pH 7.5, 5 mM MgCl2, 20 mM NaCl, 5 mM dithiothreitol, and 0.1 g/L BSA. The reaction was stopped by aspiration after 75 min at 28° C. and the plate was washed several times. After washing, incorporated radioactivity was counted using a Microbeta scintillation counter.

Chain of HCV NS5B polymerase (P26663 2420-3010): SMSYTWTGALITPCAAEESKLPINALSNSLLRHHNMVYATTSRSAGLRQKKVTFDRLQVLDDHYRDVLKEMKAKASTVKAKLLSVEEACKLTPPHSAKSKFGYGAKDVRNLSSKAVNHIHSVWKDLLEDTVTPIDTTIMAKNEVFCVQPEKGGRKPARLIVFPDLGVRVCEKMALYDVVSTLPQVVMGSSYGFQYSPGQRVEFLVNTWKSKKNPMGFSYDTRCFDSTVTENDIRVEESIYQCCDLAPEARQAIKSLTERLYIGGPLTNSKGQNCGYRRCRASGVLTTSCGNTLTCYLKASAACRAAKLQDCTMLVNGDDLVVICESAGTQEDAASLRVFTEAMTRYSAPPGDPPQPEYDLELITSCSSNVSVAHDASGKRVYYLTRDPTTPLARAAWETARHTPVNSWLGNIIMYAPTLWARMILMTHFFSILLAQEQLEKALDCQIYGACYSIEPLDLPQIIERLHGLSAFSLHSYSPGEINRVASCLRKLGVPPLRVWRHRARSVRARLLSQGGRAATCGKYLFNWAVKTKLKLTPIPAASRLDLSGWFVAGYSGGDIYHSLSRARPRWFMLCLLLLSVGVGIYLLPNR

Question: `COc1ccc2c(c1)S(=O)(=O)NC(c1c(O)c(-c3sccc3C)nn(CCC(C)C)c1=O)=N2` [Compound 61, 5-Hydroxy-4-(7-methoxy-1,1-dioxo-1,2-dihydro-1λ^6-ben-zo[1,2,4]thiadiazin-3-yl)-2-(3-methyl-butyl)-6-(3-methyl-thio-phen-2-yl)-2H-pyridazin-3-one] was tested. Which IC50 did it give?
Answer: The IC50 was under 10 µM.

Question: Which IC50 does the source give for `CCCCn1nc(C(C)(C)CO)c(O)c(C2=Nc3ccc(OC)cc3S(=O)(=O)N2)c1=O` [Compound 14, 2-Butyl-5-hydroxy-6-(2-hydroxy-1,1-dimethyl-ethyl)-4-(7-meth-oxy-1,1-dioxo-1,2-dihydro-1λ^6-benzo[1,2,4]thiadiazin-3-yl)-2H-py-ridazin-3-one] here?
Answer: The IC50 was 10 to 50 µM.

Question: For `CC(C)c1nn(CCC(C)(C)C)c(=O)c(C2=Nc3ccccc3S(=O)(=O)N2)c1O` [Compound 53, 2-(3,3-Dimethyl-butyl)-4-(1,1-dioxo-1,2-dihydro-1λ^6-ben-zo[1,2,4]thiadiazin-3-yl)-5-hydroxy-6-isopropyl-2H-py-ridazin-3-one], which IC50 is on record?
Answer: Its IC50 is under 10 µM.

Question: With `CCCCc1nn(CCCC)c(=O)c(C2=Nc3ccc(OCC(N)=O)cc3S(=O)(=O)N2)c1O` [Compound 47, 2-[3-(2,6-Dibutyl-5-hydroxy-3-oxo-2,3-dihydro-pyridazin-4-yl)-1,1-di-oxo-1,2-dihydro-1λ^6-benzo[1,2,4]thiadiazin-7-yl-oxy]-acetamide] as the compound, how does the IC50 read?
Answer: The IC50 was under 10 µM.

Question: For `CC(C)CCn1nc(-c2cccs2)c(O)c(C2=NS(=O)(=O)c3sc(Cl)cc3N2)c1=O` [Compound 50, 4-(2-Chloro-7,7-dioxo-4,7-dihydro-1,7λ^6-dithia-4,6-diaza-inden-5-yl)-5-hydroxy-2-(3-methyl-butyl)-6-thiophen-2-yl-2H-py-ridazin-3-one], which IC50 is on record?
Answer: The IC50 was 10 to 50 µM.

Question: For `Cc1ccc(-c2nn(Cc3ccccc3)c(=O)c(C3=Nc4ccccc4S(=O)(=O)N3)c2O)s1` [Compound 59, 2-Benzyl-4-(1,1-dioxo-1,2-dihydro-1λ^6-ben-zo[1,2,4]thiadiazin-3-yl)-5-hydroxy-6-(5-methyl-thiophen-2-yl)-2H-py-ridazin-3-one], which IC50 is on record?
Answer: Its IC50 is under 10 µM.

Question: Which IC50 does the source give for `COc1ccc2c(c1)S(=O)(=O)NC(c1c(O)c(-c3ccco3)nn(CCC(C)C)c1=O)=N2` [Compound 32, 6-Furan-2-yl-5-hydroxy-4-(7-methoxy-1,1-dioxo-1,2-dihydro-1λ^6-ben-zo[1,2,4]thiadiazin-3-yl)-2-(3-methyl-butyl)-2H-py-ridazin-3-one] here?
Answer: The IC50 was under 10 µM.

Question: Which IC50 does the source give for `CC(C)CCn1nc(C(C)C)c(O)c(C2=Nc3ccc(O)cc3S(=O)(=O)N2)c1=O` [Compound 29, 5-Hydroxy-4-(7-hydroxy-1,1-dioxo-1,2-dihydro-1λ^6-ben-zo[1,2,4]thiadiazin-3-yl)-6-isopropyl-2-(3-methyl-butyl)-2H-py-ridazin-3-one] here?
Answer: Its IC50 is 10 to 50 µM.

Question: `Cc1ccsc1-c1nn(CCC(C)C)c(=O)c(C2=NS(=O)(=O)c3cc(OCC(N)=O)ccc3N2)c1O` [Compound 65, 2-{3-[5-Hydroxy-2-(3-methyl-butyl)-6-(3-methyl-thiophen-2-yl)-3-ox-o-2,3-dihydro-pyridazin-4-yl]-1,1-dioxo-1,2-dihydro-1λ^6-ben-zo[1,2,4]thiadiazin-7-yloxy}-acetamide] was tested. Which IC50 did it give?
Answer: The IC50 was under 10 µM.

Question: How did the IC50 turn out when `CCCCn1nc(-c2cccs2)c(O)c(C2=Nc3ccc(OC)cc3S(=O)(=O)N2)c1=O` [Compound 17, 2-Butyl-5-hydroxy-4-(7-methoxy-1,1-dioxo-1,2-dihydro-1λ^6-ben-zo[1,2,4]thiadiazin-3-yl)-6-thiophen-2-yl-2H-pyridazin-3-one] was run?
Answer: The IC50 was under 10 µM.

Question: For `CC(C)CCn1nc(C(C)C)c(O)c(C2=Nc3ccccc3S(=O)(=O)N2)c1=O` [Compound 27, 4-(1,1-Dioxo-1,2-dihydro-1λ^6-benzo[1,2,4]thiadiazin-3-yl)-5-hy-droxy-6-isopropyl-2-(3-methyl-butyl)-2H-pyridazin-3-one], which IC50 is on record?
Answer: Its IC50 is 10 to 50 µM.

Question: `CCCc1nn(CCC(C)C)c(=O)c(C2=Nc3ccc(OC)cc3S(=O)(=O)N2)c1O` [Compound 42, 5-Hydroxy-4-(7-methoxy-1,1-dioxo-1,2-dihydro-1λ^6-ben-zo[1,2,4]thiadiazin-3-yl)-2-(3-methyl-butyl)-6-propyl-2H-py-ridazin-3-one] was tested. Which IC50 did it give?
Answer: Its IC50 is under 10 µM.

Question: Which IC50 does the source give for `COc1ccc2c(c1)S(=O)(=O)NC(c1c(O)c(-c3cccn3C)nn(CCC(C)C)c1=O)=N2` [Compound 28, 5-Hydroxy-4-(7-methoxy-1,1-dioxo-1,2-dihydro-1λ^6-ben-zo[1,2,4]thiadiazin-3-yl)-2-(3-methyl-butyl)-6-(1-methyl-1H-pyr-rol-2-yl)-2H-pyridazin-3-one] here?
Answer: The IC50 was 10 to 50 µM.

Question: Which IC50 does the source give for `O=c1c(C2=Nc3ccc(O)cc3S(=O)(=O)N2)c(O)c(-c2cccs2)nn1Cc1c(F)cccc1Cl` [Compound 19, 2-(2-Chloro-6-fluoro-benzyl)-5-hydroxy-4-(7-hydroxy-1,1-di-oxo-1,2-dihydro-1λ^6-benzo[1,2,4]thiadiazin-3-yl)-6-thio-phen-2-yl-2H-pyridazin-3-one] here?
Answer: Its IC50 is 10 to 50 µM.

Question: For `CCCCc1nn(CCCC)c(=O)c(C2=Nc3ccc(OC)cc3S(=O)(=O)N2)c1O` [Compound 40, 2,6-Dibutyl-5-hydroxy-4-(7-methoxy-1,1-dioxo-1,2-dihydro-1λ^6-ben-zo[1,2,4]thiadiazin-3-yl)-2H-pyridazin-3-one], which IC50 is on record?
Answer: Its IC50 is 10 to 50 µM.

Question: For `CCCc1nn(CCC(C)C)c(=O)c(C2=NS(=O)(=O)c3cc(OCC(N)=O)ccc3N2)c1O` [Compound 49, 2-{3-[5-Hydroxy-2-(3-methyl-butyl)-3-oxo-6-propyl-2,3-di-hydro-pyridazin-4-yl]-1,1-dioxo-1,2-dihydro-1λ^6-ben-zo[1,2,4]thiadiazin-7-yloxy}-acetamide], which IC50 is on record?
Answer: Its IC50 is under 10 µM.

Question: `CCCCn1nc(CCC(C)C)c(O)c(C2=Nc3ccc(OC)cc3S(=O)(=O)N2)c1=O` [Compound 34, 2-Butyl-5-hydroxy-4-(7-methoxy-1,1-dioxo-1,2-dihydro-1λ^6-ben-zo[1,2,4]thiadiazin-3-yl)-6-(3-methyl-butyl)-2H-pyridazin-3-one] was tested. Which IC50 did it give?
Answer: Its IC50 is under 10 µM.
